Read-outs that look alike come from different tables or passages of the source. Each block holds one compound with its values, some of them ahead of it.
How the values were obtained:
[1] = Amount of paracetamol at various points in time and different pH; format: physicochemical; details: pH range 6.3-7.3, various points in time
Excerpt: The amount of paracetamol was studied at varies points in time and for different pH's.

[2] = cited from earlier work
[3] = Dissolution of sodium ibuprofen 2H2O alone in water at gradually decreased pH (precipitation observed); format: physicochemical; details: for Dissolved: 3.85 mg/ml alone in water; for Dissolution: in water after 1 month storage at 25° C.
Method: Precipitation of ibuprofen is observed once pH is at 5.75. The Ibuprofen solutions were stored for 1 month at 25° C. They were again observed for signs of precipitation.

[4] = Dissolution of sodium ibuprofen 2H2O in the formulation Paracetamol - Ibuprofen at varying pH; format: physicochemical
Method: In a further experiment the dissolution of sodium ibuprofen 2H2O was studied in combination with paracetamol at a concentration of 10 mg paracetamol per liter.

[5] = as above; format: physicochemical; details: in the formulation 3 mg/ml Paracetamol 10 mg/ml Ibuprofen

Degradation of paracetamol [1]: minimal degradation
Structure (SMILES): CC(=O)Nc1ccc(O)cc1 [paracetamol, N-(4-hydroxyphenyl)acetamide]
pH at which rate of degradation of paracetamol is minimal ([2]; aqueous solution (Koshy et al., 1961)): ~6 | Degradation of paracetamol ([2]; at pH 7): significant

Dissolved ([3]; pH 3): No | Dissolved ([3]; pH 4): No | Dissolved ([3]; pH 5): No | Dissolved ([3]; pH 5.5): No | Dissolved ([3]; pH 5.8): Yes | Dissolved ([3]; pH 6): Yes | Dissolved ([3]; pH 6.2): Yes | Dissolved ([3]; pH 6.4): Yes | Dissolved ([3]; pH 6.6): Yes | Dissolved ([3]; pH 6.8): Yes | Dissolved ([3]; pH 7): Yes | Dissolved ([3]; pH 7.5): Yes | pH at which precipitation of ibuprofen is observed ([3]; 3.85 mg/ml in water, pH gradually decreased from 8.80): 5.75 | Dissolution ([3]; pH 5.8): No | Dissolution ([3]; pH 6): No | Dissolution ([3]; pH 6.2): Yes | Dissolution ([3]; pH 6.4): Yes | Dissolution ([3]; pH 6.6): Yes | Dissolution ([3]; pH 6.8): Yes | Dissolution ([3]; pH 7): Yes | Dissolution ([3]; pH 7.5): Yes | Precipitation ([3]; solution at pH 6, stored for 1 month at 25° C.): showed precipitation | Precipitation ([3]; solution at pH 6.2, stored for 1 month at 25° C.): precipitation was absent | Dissolution ([4]; 1 month storage at 25° C., pH 6.2): No | Dissolution ([4]; 1 month storage at 25° C., pH 6.3): Yes | Dissolution ([4]; 1 month storage at 25° C., pH 6.4): Yes | Dissolution ([4]; 1 month storage at 25° C., pH 6.6): Yes | Dissolution ([4]; 1 month storage at 25° C., pH 7): Yes | Dissolution ([4]; 6 months, 25° C., pH 6.3): Yes | Dissolution ([4]; 6 months, 25° C., pH 6.4): Yes | Dissolution ([4]; 6 months, 25° C., pH 6.6): Yes | Dissolution ([4]; 6 months, 25° C., pH 7): Yes | Dissolved ([5]; pH 6.2): Yes | Dissolved ([5]; pH 6.3): Yes | Dissolved ([5]; pH 6.4): Yes | Dissolved ([5]; pH 6.6): Yes | Dissolved ([5]; pH 7): Yes
Structure (SMILES): CC(C)Cc1ccc(C(C)C(=O)O)cc1 (stereo not drawn) [sodium ibuprofen 2H2O]

Structure (SMILES): CC(C)Cc1ccc(C(C)C(=O)O)cc1 (stereo not drawn) [Ibuprofen, 2-(p-isobutylphenyl)propionic acid]
Precipitation of ibuprofen ([2]; at pH 5.5 to 6.0): precipitates | Solubility in water [2]: very poorly soluble
